Experiment [1] relates to caspase 9 in MCF7 cells. Nature of the experiment: Caspase 9 activity, fluorimetric. Format: cell-based, human. The following applies: MCF7, 2 h, 50 µM. How it is done: (§1) Activation of caspase 3, caspase 7 and caspase 9 was measured using the Caspase 3/7 Fluorescence Assay kit (Cayman Chemical, Ann Arbor, MI; #10,009,135) and the Caspase 9 fluorimetric assay kit (Enzo Life Science, Roma, Italy; #ALX-850-224). The results were expressed as nmoles of the hydrolyzed substrate of each caspase/mg cellular proteins, according to a previously set titration curve.

The subject of experiment [2] is caspase 9 in A549 cells. The experiment is described as follows: Caspase 9 activity, fluorimetric. Format: cell-based, human. The following applies: A549, 2 h, 50 µM. As for the experimental part: as §1
The test system of experiment [3] is BEAS-2B. The experiment is described as follows: Cell viability, MTT assay at 48 h. Format: cell-based. The following applies: Homo sapiens, read-out: EC50 ± SEM, normal cells BEAS-2B. As for the experimental part: (§2) Human MCF7 breast adenocarcinoma (#HTB-22) and human A549 carcinoma (#CCL-85) cell lines, non-tumor human breast (MCF10A, #CRL-10317) and lung (BEAS-2B, #CRL-9482) cells were obtained from American Type Culture Collection (ATCC, Bethesda, MD). MCF7 cells were cultured in DMEM medium (Gibco Thermo Scientific, Waltham, MA; #10,565,018), A549 in HAM’s F12 medium (Gibco Thermo Scientific; #11,765,054), and BEAS-2B in RPMI-1640 medium (Gibco Thermo Scientific; # 61,870,010), all supplemented with 10% v/v fetal bovine serum (FBS; Sigma, St. Louis, MO; #F4135) and 1% v/v penicillin–streptomycin (Sigma; #P4458). MCF10A cells were cultured in DMEM/F12 medium (Gibco Thermo Scientific; #31,331,028) supplemented with 5% v/v horse serum (Sigma; #H1270) and 1% v/v penicillin–streptomycin, 20 ng/mL epidermal growth factor (Sigma, #E4127), 10 µg/mL insulin (Sigma, #I3536), […] hydrocortisone (Sigma, #H0888), 100 ng/mL cholera toxin (Sigma, #C8052). Cells were kept in a humidified incubator at 37 °C with 5% CO2.
(§3) Cell growth was determined using the MTT assay at 48 h. On day 1, 25,000 cells/well were seeded into 96-well plates in a volume of 100 μL. On day 2, the various drug concentrations (1 μM–100 μM) were added. In all experiments, the various drug solvents (EtOH, Sigma, # E7148; DMSO, Sigma, # D8418) were added to each control to evaluate possible cytotoxicity of the solvent. After the established incubation time with drugs (48 h), MTT (0.5 mg/mL, Sigma # M2003) was added to each well, and after 3–4 h incubation at 37 °C, the supernatant was removed. Formazan crystals were solubilized using 100 μl of DMSO/EtOH (1:1) and absorbance values at 570 and 630 nm were determined on the microplate reader Victor 3 from PerkinElmer Life Sciences (Waltham, MA).

The subject of experiment [4] is MCF7. Nature of the experiment: Cell viability, MTT assay at 48 h. Format: cell-based. Conditions: Homo sapiens, MCF7; MTT, 48 h; read-out: EC50 ± SEM, tumor cells MCF7. How it is done: as §2, §3
Experiment [5] relates to MCF10A. Nature of the experiment: Cell viability, MTT assay at 48 h. The following applies: Homo sapiens, MCF-10A, read-out: EC50 ± SEM, normal cells MCF10A. Format: cell-based. How it is done: as §2, §3
In experiment [6] the test system is A549. The experiment is described as follows: Cell viability, MTT assay at 48 h. Format: cell-based. The following applies: Homo sapiens, A549; MTT, 48 h; read-out: EC50 ± SEM, tumor cells A549. As for the experimental part:
as §2, §3

In experiment [7] the test system is MCF7 and A549 cell lines. Nature of the experiment: Cytotoxic activity across the two tumor cell lines (MTT). Format: cell-based. Conditions: Homo sapiens; MCF7 and A549, MTT 48 h; read-out: EC50 range in the two tumor cell lines. How it is done: as §2
Cell growth was determined using the MTT assay at 48 h. On day 1, 25,000 cells/well were seeded into 96-well plates in a volume of 100 μL. […] Formazan crystals were solubilized using 100 μl of DMSO/EtOH (1:1) and absorbance values at 570 and 630 nm were determined on the microplate reader Victor 3 from PerkinElmer Life Sciences (Waltham, MA).

Consider `CN(C)C(=S)N/N=C1\C(=O)N(CCCCN2CCC3(CC2)OCc2ccccc23)c2ccccc21` [FA4, (Z)-2-(1-(4-(3H-spiro[isobenzofuran-1,4′-piperidine]-1′-yl)butyl)-2-oxoindolin-3-ylidene)-N,N-dimethylhydrazinecarbothioamide], for which the “Caspase 9 activation” value in experiment [1] and in experiment [2] was “activate” in each case. Moreover, the “Rank order of caspase 9 activation” value in experiment [1] is “FA4 > MLP44 > PS3 > ACThio1”. The half-maximal effective concentration (EC50) in experiment [3] is 4.47 ± 1.1 µM; in experiment [4], 1.53 ± 0.3 µM; in experiment [5] it was 4.31 ± 0.7 µM; in experiment [6] it was 1.84 ± 0.4 µM; in experiment [7], 1.53 to 1.84 µM.

For the origin of these results see paper PMC10661773, “Cytotoxic pathways activated by multifunctional thiosemicarbazones targeting sigma-2 receptors in breast and lung carcinoma cells” (Pharmacological Reports, 2023).
